Laboratory results reported in patent publication US11951171B2, “Polypeptide EXP and its drug delivery system as well as extracellular vesicle extraction” (TIANJIN MEDICAL UNIVERSITY, priority 2019, dated 2024).

Legend:
[1] = system: MVmyo (microvesicles derived from differentiated muscle cells); assay: Binding efficiency of EXP and CP05 to microvesicles (flow cytometer); settings: flow cytometer (FIG. 8C)
Description: (A)Western blot is used to identify and compare the expression of biomarker proteins of MV and exosomes. It's shown by the results that Tetraspanin family proteins like CD81, CD9 and CD63 were expressed in MV, but mitochondrial marker protein Cytochrome C was not expressed. (B) particle size distribution of MV from different sources were detected by Nanosight. MVmyot means microvesicles derived from differentiated muscle cells; MVurine means microvesicles derived from urine. (C) Examination of the binding efficiency of EXP and CP05 to MVmyo was detected by flow cytometer. […] (E)Western blot was used to detect the recovery of dystrophin protein expression after MVEXPPMO treatment. […]

[2] = system: exosome from differentiated muscle cells C2C12(dC2C12); assay: Flow cytometry binding of FAM-labeled peptides to exosome; parameters: species or system murine
Protocol: The FAM-labeled peptides EXP, CP05, 39880, 39881 were respectively co-incubated with exosome from differentiated muscle cells C2C12(dC2C12), and the binding efficiency of different polypeptides with exosome was detected by flow cytometry.
Each sign in the figure represents the detection results of the following sequences: EXO represents exosomes derived from murine myotubes; CP05 represents the polypeptide which is recorded in the prior art Chinese patent No. CN201510520565.7; EXP represents the polypeptide of the present invention (SEQ ID NO.1). 39880 and 399881 respectively represent two other variants of CP05. (A) Flow cytometry to detected the binding efficiency of different peptides with exosomes. […] (B) Flow cytometry to detected the capacity to enter cells of different peptides mediated by exosome. The equivalent amount FAM-labeled polypeptides were incubated with exosome derived from dC2C12 and added into C2C12 cells, and the capacity of enter cells was detected 24 hours later. It's shown by the results that 65.6% of EXO-EXP entered cells whose capacity is highest. (C) Quantitative analysis of different peptides entering cells mediated by exosome. […] (D) the binding efficiency of different amount gradients of CP05 and EXP to the equivalent amount of exosomes was detected by Flow cytometry to. Different amounts of EXP and CP05(0.03 μg, […], 0.3 μg) were co-incubated with exosomes (10 μg), and their binding efficiency was compared by flow cytometry.
1.1 Flow cytometry is used to detect the binding capacity of EXP and other peptides to exosome. • (1) FAM-labeled CP05 and other peptides respectively with amount of […] were mixed with exosome from different source like dC2C12, CDC and serum respectively with amount of […], and DPBS is used to make up a deficiency to 200 μl in volume with. • (2) The mixture prepared as described in (1) was incubated at 4° C. for 2-4 hrs under rotation in vertical shaker. • (3) the binding efficiency was detected with flow cytometry.

[3] = target: T1, CD63 (Mus musculus, UniProt P41731); assay: EXP target detection by co-immunoprecipitation, silver staining and Western blot; type: binding; settings: Flag-tagged peptide on anti-flag beads, C2C12 lysate; band about 45 kD and 25 kD
T1 construct: endogenous in cells; host or cells: C2C12 cells (lysate)
T1 sequence (P41731 1-238): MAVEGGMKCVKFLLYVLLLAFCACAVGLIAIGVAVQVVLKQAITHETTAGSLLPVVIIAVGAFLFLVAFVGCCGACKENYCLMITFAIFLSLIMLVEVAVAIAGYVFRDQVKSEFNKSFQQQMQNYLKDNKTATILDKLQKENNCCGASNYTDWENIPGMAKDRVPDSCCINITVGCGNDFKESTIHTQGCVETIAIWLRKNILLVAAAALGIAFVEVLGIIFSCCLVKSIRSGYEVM
Protocol: (§1) (A) Silver staining and Western blot were used to detect the interest proteins band obtained by co-immunoprecipitation. Flag-tagged CP05 or EXP was incubated with anti-flag coated beads, and followed by co-incubation with cell lysates after removing the free peptides which were unconjugated with beads. The specific enriched proteins in the cell protein lysate were fished by using the polypeptide. Then the size distribution of the fishing strip was detected by silver staining, and the expression of different Tetraspanin family proteins in the fishing strip was detected by Western blot. […] (B)Immunoprecipitation was used to catch the target of EXP. The results are the same as above. […]

[4] = target: T2, CD81 (Mus musculus, UniProt P35762); assay: as above; type: binding; settings: Flag-tagged peptide on anti-flag beads, C2C12 lysate; band about 45 kD and 25 kD
T2 construct: endogenous in cells; host or cells: C2C12 cells (lysate)
T2 sequence (P35762 1-236): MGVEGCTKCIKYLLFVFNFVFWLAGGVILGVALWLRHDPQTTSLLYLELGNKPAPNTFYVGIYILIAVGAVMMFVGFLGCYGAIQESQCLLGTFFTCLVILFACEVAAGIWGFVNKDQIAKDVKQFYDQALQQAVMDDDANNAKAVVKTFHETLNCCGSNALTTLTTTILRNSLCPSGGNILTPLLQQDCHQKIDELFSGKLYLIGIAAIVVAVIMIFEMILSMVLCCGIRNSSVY
Protocol: as §1

CRHKMWTVKSRL (EXP)
binding efficiency to MVmyot compared with CP05 [1]: significantly higher than that of CP05
binding efficiency with exosome under different amount gradients, compared with CP05 ([2]; 0.03 μg, 0.06 g, 0.3 μg peptide co-incubated with exosomes (10 μg), FIG. 1D): all higher than that of CP05
binding efficiency to exosomes ([2]; FAM-labeled peptide co-incubated with exosome from dC2C12, flow cytometry (FIG. 1A)): up to 95.5%
binding efficiency of EXP with exosomes compared to CP05 ([2]; under the same conditions): about 2 times
protein band fished from cell lysate, confirmed by Western blot as CD63 [3]: distinct protein bands
protein band fished from cell lysate, confirmed by Western blot as CD81 [4]: distinct protein bands
